Here are results for one compound from ChEMBL document CHEMBL4422692, “Plant-Based Modulators of Endocannabinoid Signaling” (J Nat Prod, 2019).

The structures appear in SMILES notation. Where only a bound is given, the exact number is not on record here.

One assay concerns the target Cannabinoid receptor 2 (Homo sapiens, UniProt P34972). Description: Displacement of [3H]-CP55940 from recombinant human CB2 receptor measured after 2 hrs by liquid scintillation counting method.
Assay [1] has as its target Fatty acid-binding protein 5 (Homo sapiens, UniProt Q01469). Description: Displacement of NBD-Stearate from recombinant human FABP5 measured after 30 mins by fluorescence polarization assay.
The next assay has as its target Cannabinoid receptor 1 (Homo sapiens, UniProt P21554). Put plainly: Displacement of [3H]-CP55940 from recombinant human CB1 receptor measured after 2 hrs by liquid scintillation counting method.
The next assay concerns U-937. Put plainly: Inhibition of [14C]-AEA uptake in human U937 cells preincubated for 15 mins followed by [14C]-AEA addition and measured after 5 mins by scintillation counting method. The class given is functional, cell-based.
The target in assay [2] is T1, Fatty-acid amide hydrolase 1 (Homo sapiens) (UniProt O00519).
T1 sequence (whole entry): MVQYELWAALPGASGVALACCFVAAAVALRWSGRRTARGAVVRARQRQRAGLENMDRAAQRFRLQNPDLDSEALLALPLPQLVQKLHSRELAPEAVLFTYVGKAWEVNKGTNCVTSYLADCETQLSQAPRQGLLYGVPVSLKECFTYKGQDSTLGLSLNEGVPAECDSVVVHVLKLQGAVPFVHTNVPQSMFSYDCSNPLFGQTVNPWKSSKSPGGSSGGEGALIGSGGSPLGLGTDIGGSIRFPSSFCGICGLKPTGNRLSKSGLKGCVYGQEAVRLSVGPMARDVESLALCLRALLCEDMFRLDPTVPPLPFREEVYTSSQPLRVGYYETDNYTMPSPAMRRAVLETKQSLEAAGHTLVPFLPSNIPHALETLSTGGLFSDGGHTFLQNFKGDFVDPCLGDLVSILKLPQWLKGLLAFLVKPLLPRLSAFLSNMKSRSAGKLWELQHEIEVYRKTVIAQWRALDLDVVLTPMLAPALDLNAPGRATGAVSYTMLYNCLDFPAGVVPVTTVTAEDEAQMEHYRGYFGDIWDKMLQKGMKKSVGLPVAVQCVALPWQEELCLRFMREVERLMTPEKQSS
Description: Inhibition of FAAH in human U937 cell homogenates at 100 uM using [14C]-AEA as substrate preincubated for 15 mins followed by substrate addition and measured after 15 mins by liquid scintillation counting method relative to control.

Another assay addresses T2, Monoglyceride lipase (Homo sapiens, UniProt Q99685).
T2 sequence (Q99685 whole entry): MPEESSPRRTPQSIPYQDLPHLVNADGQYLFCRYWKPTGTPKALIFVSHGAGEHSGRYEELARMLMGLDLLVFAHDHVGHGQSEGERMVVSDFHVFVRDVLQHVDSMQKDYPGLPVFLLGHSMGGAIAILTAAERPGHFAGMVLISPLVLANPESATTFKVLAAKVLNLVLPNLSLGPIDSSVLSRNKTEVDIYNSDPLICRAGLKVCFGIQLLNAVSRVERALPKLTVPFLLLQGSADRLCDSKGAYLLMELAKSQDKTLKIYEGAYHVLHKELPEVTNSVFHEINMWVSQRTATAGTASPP
Description: Inhibition of MAGL in human U937 cell homogenates using [3H]-2OG as substrate preincubated for 15 mins followed by substrate addition and measured after 15 mins by liquid scintillation counting method.

Assay [3] deals with T3, Fatty-acid amide hydrolase 1 (Homo sapiens, UniProt O00519).
T3 sequence (O00519 whole entry): T1 sequence (whole entry)
Put plainly: Inhibition of FAAH in human U937 cell homogenates using [14C]-AEA as substrate preincubated for 15 mins followed by substrate addition and measured after 15 mins by liquid scintillation counting method.

Chain of Cannabinoid receptor 1 (P21554 whole entry): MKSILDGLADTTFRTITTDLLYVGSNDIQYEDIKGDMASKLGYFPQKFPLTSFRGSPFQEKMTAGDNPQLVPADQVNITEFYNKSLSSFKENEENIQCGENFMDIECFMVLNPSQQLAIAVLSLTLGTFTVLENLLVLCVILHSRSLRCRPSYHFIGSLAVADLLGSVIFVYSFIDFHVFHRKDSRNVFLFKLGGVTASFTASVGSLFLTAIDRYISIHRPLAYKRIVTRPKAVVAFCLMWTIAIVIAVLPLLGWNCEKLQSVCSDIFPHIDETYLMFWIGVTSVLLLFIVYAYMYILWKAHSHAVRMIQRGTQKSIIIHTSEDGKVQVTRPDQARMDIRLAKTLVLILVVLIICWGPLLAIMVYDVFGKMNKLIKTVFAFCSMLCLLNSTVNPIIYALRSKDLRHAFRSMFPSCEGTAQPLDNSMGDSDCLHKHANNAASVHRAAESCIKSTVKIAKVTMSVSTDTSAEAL
Chain of Fatty acid-binding protein 5 (Q01469 whole entry): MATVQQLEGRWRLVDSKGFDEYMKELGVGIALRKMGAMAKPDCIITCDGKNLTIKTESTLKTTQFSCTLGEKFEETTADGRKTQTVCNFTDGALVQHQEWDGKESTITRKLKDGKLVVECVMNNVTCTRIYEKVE
Chain of Cannabinoid receptor 2 (P34972 whole entry): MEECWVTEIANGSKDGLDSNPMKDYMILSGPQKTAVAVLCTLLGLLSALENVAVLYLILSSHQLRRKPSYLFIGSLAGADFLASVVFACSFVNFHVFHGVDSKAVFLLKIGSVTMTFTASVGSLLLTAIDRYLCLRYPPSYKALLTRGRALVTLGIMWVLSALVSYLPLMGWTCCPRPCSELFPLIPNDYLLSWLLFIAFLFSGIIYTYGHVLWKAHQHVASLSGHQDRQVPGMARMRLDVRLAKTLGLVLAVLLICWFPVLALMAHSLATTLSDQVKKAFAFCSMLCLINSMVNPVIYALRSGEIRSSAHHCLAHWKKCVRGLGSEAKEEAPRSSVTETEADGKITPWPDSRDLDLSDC

With `CC(C)CNC(=O)/C=C/C=C/CCCCCC/C=C/c1ccc2c(c1)OCO2` [GUINEENSINE], the Ki on Cannabinoid receptor 2 is 38.3 µM; in assay [1], more than 100 µM; at Cannabinoid receptor 1, more than 20 µM; at Monoglyceride lipase it was more than 100 µM. Moreover, the Efficacy in the assay with U-937 was found to be 65%. The compound further showed an EC50 in the assay with U-937 (Homo sapiens, U-937) of 0.29 µM. This compound showed an inhibition in assay [2] of 59%. In assay [3], this compound registered a half-maximal inhibitory concentration (IC50) of 46.8 µM.

For orientation: Ki means a measure of affinity in units of concentration, obtained from inhibition or displacement. What is called EC50 is the concentration at which the effect is half-maximal. High values mean a less potent agent, low ones a more potent agent. For orientation: inhibition means how much of the control response was suppressed. The low end stands for a response near the control, the high end for a response far below the control. As a reminder, the IC50 is the concentration needed to halve the response being measured. Low values mean inhibition by little substance, high ones a need for much substance.
